# Assay results as given in the supplement of paper PMC10307832.
# Legend:
# Test in all cases: relative viability (nuclei count vs DMSO), 5 days (fraction); higher = more cells survive
# Selumetinib + OSI-027 = compound: Cn1cnc2c(F)c(Nc3ccc(Br)cc3Cl)c(C(=O)NOCCO)cc21 [Selumetinib] + COc1cccc2cc(-c3nc([C@H]4CC[C@H](C(=O)O)CC4)n4ncnc(N)c34)[nH]c12 [OSI-027] (partner 0.5 µM)
# Method in brief: (§1)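 Relative viability equals treated-well nuclei counts divided by vehicle-well nuclei counts. Counts came from 4× images of lung cancer cell lines grown in 1536-well plates for 5 days after pin-tool dosing on the day after seeding. Dosing used one drug alone or a fixed anchor-drug dose plus five library-drug doses (not always all listed) in √10 steps, and values are medians of duplicate plates.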
# Venetoclax + Foretinib = compound: CC1(C)CCC(CN2CCN(c3ccc(C(=O)NS(=O)(=O)c4ccc(NCC5CCOCC5)c([N+](=O)[O-])c4)c(Oc4cnc5[nH]ccc5c4)c3)CC2)=C(c2ccc(Cl)cc2)C1 [Venetoclax] + COc1cc2c(Oc3ccc(NC(=O)C4(C(=O)Nc5ccc(F)cc5)CC4)cc3F)ccnc2cc1OCCCN1CCOCC1 [Foretinib] (partner 0.25 µM)
# Method in brief: as §1
# Venetoclax + Lapatinib = compound: CC1(C)CCC(CN2CCN(c3ccc(C(=O)NS(=O)(=O)c4ccc(NCC5CCOCC5)c([N+](=O)[O-])c4)c(Oc4cnc5[nH]ccc5c4)c3)CC2)=C(c2ccc(Cl)cc2)C1 [Venetoclax] + CS(=O)(=O)CCNCc1ccc(-c2ccc3ncnc(Nc4ccc(OCc5cccc(F)c5)c(Cl)c4)c3c2)o1 [Lapatinib] (partner 2 µM)
# Method in brief: as §1
# Selumetinib + AZD7762 = compound: Cn1cnc2c(F)c(Nc3ccc(Br)cc3Cl)c(C(=O)NOCCO)cc21 [Selumetinib] + NC(=O)Nc1cc(-c2cccc(F)c2)sc1C(=O)N[C@H]1CCCNC1 [AZD7762] (partner 0.2 µM)
# Method in brief: as §1
Cell Line,relative viability (Selumetinib + OSI-027; first compound 0.02 µM),relative viability (Selumetinib + OSI-027; first compound 0.06325 µM),relative viability (Selumetinib + OSI-027; first compound 0.2 µM),relative viability (Selumetinib + OSI-027; first compound 0.6325 µM),relative viability (Venetoclax + Foretinib; first compound 0.01 µM),relative viability (Venetoclax + Foretinib; first compound 0.03162 µM),relative viability (Venetoclax + Foretinib; first compound 0.1 µM),relative viability (Venetoclax + Foretinib; first compound 0.3162 µM),relative viability (Venetoclax + Foretinib; first compound 1 µM),relative viability (Venetoclax + Lapatinib; first compound 0.01 µM),relative viability (Venetoclax + Lapatinib; first compound 0.03162 µM),relative viability (Venetoclax + Lapatinib; first compound 0.1 µM),relative viability (Venetoclax + Lapatinib; first compound 0.3162 µM),relative viability (Venetoclax + Lapatinib; first compound 1 µM),relative viability (Selumetinib + AZD7762; first compound 0.02 µM),relative viability (Selumetinib + AZD7762; first compound 0.06325 µM),relative viability (Selumetinib + AZD7762; first compound 0.2 µM),relative viability (Selumetinib + AZD7762; first compound 0.6325 µM)
NCI-H1993,0.553,0.585,0.585,0.632,0.786,0.859,0.863,0.783,0.686,0.783,0.861,0.796,0.733,0.813,0.842,0.733,0.634,0.666
NCI-H2085,0.71,0.499,0.35,0.428,1.01,1.03,0.905,0.919,0.884,0.658,0.849,0.749,0.821,0.747,0.914,0.906,0.864,0.722
NCI-H2087,0.466,0.434,0.256,0.177,0.911,1.18,1.13,0.955,0.893,0.958,1.16,1.07,1.09,1.05,1.1,0.993,1.16,0.525
NCI-H2126,0.676,0.597,0.577,0.606,1.17,1.21,0.784,1.09,1.06,0.738,0.731,0.734,0.769,0.73,1.03,0.981,0.987,0.903
NCI-H2170,0.712,0.714,0.664,0.684,0.971,1.01,0.939,0.995,1,0.255,0.29,0.255,0.254,0.268,0.874,0.88,0.711,0.838
NCI-H2347,0.412,0.294,0.255,0.177,1.05,1.39,0.85,0.883,0.854,0.948,0.949,0.983,0.872,0.922,0.678,0.568,0.454,0.343
NCI-H2405,0.721,0.661,0.585,0.412,1.03,1.08,1.01,0.999,1.04,1.07,1.08,,1.01,1,0.729,0.492,0.561,0.466
NCI-H3122,0.709,0.512,0.417,0.291,0.954,0.996,0.924,0.942,0.96,1.15,1.04,1.05,0.986,1.05,0.886,0.808,0.785,0.552
PC-3 [JPC-3],0.712,0.752,0.749,0.787,0.939,1.07,1.14,0.987,0.994,0.474,0.474,0.434,0.465,0.475,0.656,0.676,0.57,0.678
PC-14,0.752,0.716,0.73,0.538,0.945,0.968,0.939,0.966,0.822,0.367,0.328,0.291,0.361,0.323,0.364,0.397,0.276,0.313
RERF-LC-KJ,0.535,0.477,0.526,0.472,0.793,0.94,0.871,0.927,0.784,0.813,0.844,0.838,0.832,0.832,0.992,0.977,0.892,0.906
